{"source": "patent US10918645B2", "about": "(LIFEARC, priority 2016, dated 2021)", "format_in_all_cases": "biochemical", "conditions_in_all_cases": "1 μM inhibitor concentration", "key": {"CAMKKb": {"target": "CAMKKb (Homo sapiens (Human), UniProt Q96RR4)", "assay": "CAMKKb kinase selectivity assay", "procedure": "5-20 mU of CAMKKb (diluted in 50 mM Tris (pH 7.5), 0.1 mM EGTA, 1 mg/ml BSA, 0.1%, b-Mercaptoethanol) is assayed against substrate peptide ([…]) in a final volume of 25.5 μl containing 50 mM Tris (pH 7.5), 0.1 mM EGTA, 0.5 mM CaCl2, 0.3 μM calmodulin, 0.1%, b-Mercaptoethanol, 300 μM substrate peptide, 10 mM magnesium acetate and 0.02 mM [33P-g-ATP](500-1000 cpm/pmole) and incubated for 30 mins at room temperature. Assays are stopped by addition of 5 μl of 0.5M (3%) orthophosphoric acid. Assays are harvested onto P81 Unifilter plates using a wash buffer of 50 mM orthophosphoric acid."}, "BRSK2": {"target": "BRSK2 (Homo sapiens (Human), UniProt Q8IWQ3)", "assay": "BRSK2 kinase selectivity assay", "procedure": "BRSK2 (5-20 mU diluted in 50 mM Tris pH 7.5, 0.1 mM EGTA, 0.1% b-mercaptoethanol, 1 mg/ml BSA) is assayed against a substrate peptide ([…]) in a final volume of 25.5 μl containing 50 mM Tris pH 7.5, 0.05% b-mercaptoethanol, 300 μM substrate peptide, 10 mM magnesium acetate and 0.05 mM [33P-g-ATP] (50-1000 cpm/pmole) and incubated for 30 min at room temperature. Assays are stopped by addition of 5 μl of 0.5 M (3%) orthophosphoric acid and then harvested onto P81 Unifilter plates with a wash buffer of 50 mM orthophosphoric acid."}, "MINK1": {"target": "MINK1 (Homo sapiens (Human), UniProt Q8N4C8)", "assay": "MINK1 kinase selectivity assay", "procedure": "MINK1 (5-20 mU diluted in 50 mM Tris pH 7.5, 0.1 mM EGTA, 0.1% β-mercaptoethanol, 1 mg/ml BSA) is assayed against MBP in a final volume of 25.5 μl containing 50 mM Tris pH 7.5, 0.1 mM EGTA, 0.33 mg/ml MBP, 10 mM magnesium acetate and 0.05 mM [33P-γ-ATP] (50-1000 cpm/pmole) and incubated for 30 min at room temperature. Assays are stopped by addition of 5 μl of 0.5 M (3%) orthophosphoric acid and then harvested onto P81 Unifilter plates with a wash buffer of 50 mM orthophosphoric acid."}, "MEKK1": {"target": "MEKK1 (Homo sapiens (Human), UniProt Q13233)", "sequence (Q13233 whole entry, species assumed)": "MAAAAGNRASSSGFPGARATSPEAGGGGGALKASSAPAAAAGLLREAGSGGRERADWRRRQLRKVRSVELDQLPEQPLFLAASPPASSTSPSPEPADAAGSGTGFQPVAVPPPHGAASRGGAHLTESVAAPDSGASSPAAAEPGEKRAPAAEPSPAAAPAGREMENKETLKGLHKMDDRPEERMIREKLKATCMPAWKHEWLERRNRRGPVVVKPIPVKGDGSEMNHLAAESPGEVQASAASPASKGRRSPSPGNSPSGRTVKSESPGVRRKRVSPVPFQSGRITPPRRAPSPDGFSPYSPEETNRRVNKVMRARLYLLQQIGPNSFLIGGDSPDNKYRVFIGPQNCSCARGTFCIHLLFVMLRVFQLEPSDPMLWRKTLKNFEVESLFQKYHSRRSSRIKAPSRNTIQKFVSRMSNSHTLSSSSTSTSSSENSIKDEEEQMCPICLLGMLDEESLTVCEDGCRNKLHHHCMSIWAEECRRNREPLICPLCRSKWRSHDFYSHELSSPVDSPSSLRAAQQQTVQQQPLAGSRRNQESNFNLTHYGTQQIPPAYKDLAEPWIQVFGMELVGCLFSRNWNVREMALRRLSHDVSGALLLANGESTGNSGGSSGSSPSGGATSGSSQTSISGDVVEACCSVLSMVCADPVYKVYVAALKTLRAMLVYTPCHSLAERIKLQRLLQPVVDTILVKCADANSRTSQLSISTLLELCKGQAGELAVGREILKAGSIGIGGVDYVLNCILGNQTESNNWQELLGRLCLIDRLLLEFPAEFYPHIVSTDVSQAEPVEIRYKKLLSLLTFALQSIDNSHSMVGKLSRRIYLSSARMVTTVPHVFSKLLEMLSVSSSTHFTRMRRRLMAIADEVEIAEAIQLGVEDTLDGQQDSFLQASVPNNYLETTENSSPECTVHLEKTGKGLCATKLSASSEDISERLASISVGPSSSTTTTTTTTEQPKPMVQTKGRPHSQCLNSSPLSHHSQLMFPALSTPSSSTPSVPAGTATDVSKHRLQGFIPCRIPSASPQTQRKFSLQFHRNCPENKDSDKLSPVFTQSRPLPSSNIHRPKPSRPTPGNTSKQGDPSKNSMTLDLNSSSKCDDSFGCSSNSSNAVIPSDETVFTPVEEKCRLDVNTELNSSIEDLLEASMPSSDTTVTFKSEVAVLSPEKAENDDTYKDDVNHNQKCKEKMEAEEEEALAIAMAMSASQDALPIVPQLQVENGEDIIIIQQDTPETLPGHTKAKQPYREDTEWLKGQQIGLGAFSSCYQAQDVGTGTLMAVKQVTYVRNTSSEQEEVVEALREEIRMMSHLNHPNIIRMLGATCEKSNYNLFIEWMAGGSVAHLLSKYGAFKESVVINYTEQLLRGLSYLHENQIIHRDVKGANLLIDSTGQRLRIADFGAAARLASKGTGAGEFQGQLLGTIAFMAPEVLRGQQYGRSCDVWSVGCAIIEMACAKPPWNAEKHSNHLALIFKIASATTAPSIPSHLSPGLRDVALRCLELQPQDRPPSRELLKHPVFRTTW", "assay": "MEKK1 kinase selectivity assay", "procedure": "MEKK1 (5-20 mU diluted in 50 mM Tris pH 7.5, 0.1 mM EGTA, 0.1% 0-mercaptoethanol, 1 mg/ml BSA) is assayed against MBP in a final volume of 25.5 μl containing 50 mM Tris pH 7.5, 0.1 mM EGTA, 0.33 mg/ml MBP, 10 mM magnesium acetate and 0.02 mM [33P-γ-ATP] (50-1000 cpm/pmole) and incubated for 30 min at room temperature. Assays are stopped by addition of 5 μl of 0.5 M (3%) orthophosphoric acid and then harvested onto P81 Unifilter plates with a wash buffer of 50 mM orthophosphoric acid."}, "TAK1": {"target": "TAK1 (Homo sapiens (Human), UniProt O43318)", "sequence (O43318 1-303)": "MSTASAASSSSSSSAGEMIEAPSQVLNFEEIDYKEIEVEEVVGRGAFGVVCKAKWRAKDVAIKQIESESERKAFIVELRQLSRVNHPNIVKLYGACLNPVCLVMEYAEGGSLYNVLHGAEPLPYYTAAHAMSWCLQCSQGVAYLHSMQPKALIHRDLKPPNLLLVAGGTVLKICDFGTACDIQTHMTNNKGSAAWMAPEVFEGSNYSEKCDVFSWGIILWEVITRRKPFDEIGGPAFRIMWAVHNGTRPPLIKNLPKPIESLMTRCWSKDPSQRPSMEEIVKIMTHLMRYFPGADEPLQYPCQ", "assay": "TAK1 kinase selectivity assay", "procedure": "TAK1 (5-20 mU diluted in 50 mM Tris pH 7.5, 0.1 mM EGTA, 1 mg/ml BSA) is assayed against a substrate peptide ([…]) in a final volume of 25.5 μl containing 50 mM Tris pH 7.5, 0.1 mM EGTA, 0.1% β-Mercaptoethanol, 300 μM substrate peptide, 10 mM magnesium acetate, 0.5 mM MnCl and 0.005 mM [33P-γ-ATP](50-1000 cpm/pmole) and incubated for 30 min at room temperature. Assays are stopped by addition of 5 μl of 0.5 M (3%) orthophosphoric acid and then harvested onto P81 Unifilter plates with a wash buffer of 50 mM orthophosphoric acid."}, "YES1": {"target": "YES1 (Homo sapiens (Human), UniProt P07947)", "sequence (P07947 whole entry, species assumed)": "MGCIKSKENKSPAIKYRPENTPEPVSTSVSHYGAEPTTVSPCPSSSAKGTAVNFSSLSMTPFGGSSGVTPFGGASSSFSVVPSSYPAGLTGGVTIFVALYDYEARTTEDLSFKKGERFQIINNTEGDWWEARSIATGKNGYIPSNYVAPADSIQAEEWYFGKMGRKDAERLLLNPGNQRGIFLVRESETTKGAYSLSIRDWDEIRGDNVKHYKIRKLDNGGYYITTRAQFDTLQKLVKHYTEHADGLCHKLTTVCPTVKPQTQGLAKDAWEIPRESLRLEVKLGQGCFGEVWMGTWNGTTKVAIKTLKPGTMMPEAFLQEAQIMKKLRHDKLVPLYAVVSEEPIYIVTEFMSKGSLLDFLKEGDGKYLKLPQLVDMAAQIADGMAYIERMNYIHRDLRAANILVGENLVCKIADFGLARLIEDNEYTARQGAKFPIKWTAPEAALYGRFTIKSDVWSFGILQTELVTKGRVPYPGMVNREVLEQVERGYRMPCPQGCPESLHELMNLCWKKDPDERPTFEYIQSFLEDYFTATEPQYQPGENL", "assay": "YES1 kinase selectivity assay", "procedure": "YES1 (5-20 mU diluted in 50 mM Tris pH 7.5, 0.1 mM EGTA, 1 mg/ml BSA) is assayed against a substrate peptide (Poly Glut Tyr) in a final volume of 25.5 μl containing 50 mM Tris pH 7.5, 1 mg/ml substrate peptide, 10 mM magnesium acetate and 0.02 mM [33P-g-ATP] (50-1000 cpm/pmole) and incubated for 30 min at room temperature. Assays are stopped by addition of 5 μl of 0.5 M (3%) orthophosphoric acid and then harvested onto P81 Unifilter plates with a wash buffer of 50 mM orthophosphoric acid."}, "IGF-1R": {"target": "IGF-1R (Homo sapiens (Human), UniProt P08069)", "sequence (P08069 31-1367, species assumed)": "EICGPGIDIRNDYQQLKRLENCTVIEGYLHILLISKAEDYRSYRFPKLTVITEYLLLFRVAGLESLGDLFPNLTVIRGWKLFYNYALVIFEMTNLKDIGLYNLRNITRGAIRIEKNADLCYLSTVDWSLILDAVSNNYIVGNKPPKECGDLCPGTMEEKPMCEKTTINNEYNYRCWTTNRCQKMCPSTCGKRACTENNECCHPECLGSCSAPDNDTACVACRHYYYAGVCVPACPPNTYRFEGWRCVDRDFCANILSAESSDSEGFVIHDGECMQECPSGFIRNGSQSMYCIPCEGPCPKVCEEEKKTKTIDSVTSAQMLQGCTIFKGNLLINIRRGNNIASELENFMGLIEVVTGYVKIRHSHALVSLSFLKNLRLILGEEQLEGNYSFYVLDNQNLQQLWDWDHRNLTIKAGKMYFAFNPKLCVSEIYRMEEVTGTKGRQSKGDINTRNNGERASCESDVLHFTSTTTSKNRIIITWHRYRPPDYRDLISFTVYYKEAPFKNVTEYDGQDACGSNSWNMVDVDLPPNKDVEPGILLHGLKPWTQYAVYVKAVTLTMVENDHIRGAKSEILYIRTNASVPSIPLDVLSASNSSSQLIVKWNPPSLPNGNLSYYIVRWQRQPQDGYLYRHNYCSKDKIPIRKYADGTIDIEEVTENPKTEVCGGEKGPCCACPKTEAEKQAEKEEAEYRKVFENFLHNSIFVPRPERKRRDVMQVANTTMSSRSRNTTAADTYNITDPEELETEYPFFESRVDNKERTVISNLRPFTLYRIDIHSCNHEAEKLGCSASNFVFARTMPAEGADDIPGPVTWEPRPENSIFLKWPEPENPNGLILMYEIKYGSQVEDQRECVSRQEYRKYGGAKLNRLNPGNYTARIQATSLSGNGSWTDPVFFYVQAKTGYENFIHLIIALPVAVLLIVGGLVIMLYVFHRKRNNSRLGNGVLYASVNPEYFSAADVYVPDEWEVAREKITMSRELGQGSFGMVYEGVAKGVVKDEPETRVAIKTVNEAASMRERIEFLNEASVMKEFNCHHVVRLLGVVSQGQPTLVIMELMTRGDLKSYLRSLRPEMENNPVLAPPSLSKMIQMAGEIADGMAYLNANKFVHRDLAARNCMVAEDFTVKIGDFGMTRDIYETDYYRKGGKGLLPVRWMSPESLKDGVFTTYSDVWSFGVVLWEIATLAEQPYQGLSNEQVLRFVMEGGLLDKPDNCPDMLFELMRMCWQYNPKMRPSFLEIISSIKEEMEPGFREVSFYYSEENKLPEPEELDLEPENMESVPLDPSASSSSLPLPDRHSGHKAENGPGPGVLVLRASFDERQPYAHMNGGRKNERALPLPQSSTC", "assay": "IGF-1R kinase selectivity assay", "procedure": "IGF-1R (5-20 mU diluted in 50 mM Tris pH 7.5, 0.1 mM EGTA, 1 mg/ml BSA) is assayed against a substrate peptide ([…]) in a final volume of 25.5 μl containing 50 mM Tris pH 7.5, 300 µM substrate peptide, 10 mM magnesium acetate and 0.005 mM [33P-g-ATP] (50-1000 cpm/pmole) and incubated for 30 min at room temperature. Assays are stopped by addition of 5 μl of 0.5 M (3%) orthophosphoric acid and then harvested onto P81 Unifilter plates with a wash buffer of 50 mM orthophosphoric acid."}, "TrkA": {"target": "TrkA (Homo sapiens (Human), UniProt P04629)", "sequence (P04629 33-796, species assumed)": "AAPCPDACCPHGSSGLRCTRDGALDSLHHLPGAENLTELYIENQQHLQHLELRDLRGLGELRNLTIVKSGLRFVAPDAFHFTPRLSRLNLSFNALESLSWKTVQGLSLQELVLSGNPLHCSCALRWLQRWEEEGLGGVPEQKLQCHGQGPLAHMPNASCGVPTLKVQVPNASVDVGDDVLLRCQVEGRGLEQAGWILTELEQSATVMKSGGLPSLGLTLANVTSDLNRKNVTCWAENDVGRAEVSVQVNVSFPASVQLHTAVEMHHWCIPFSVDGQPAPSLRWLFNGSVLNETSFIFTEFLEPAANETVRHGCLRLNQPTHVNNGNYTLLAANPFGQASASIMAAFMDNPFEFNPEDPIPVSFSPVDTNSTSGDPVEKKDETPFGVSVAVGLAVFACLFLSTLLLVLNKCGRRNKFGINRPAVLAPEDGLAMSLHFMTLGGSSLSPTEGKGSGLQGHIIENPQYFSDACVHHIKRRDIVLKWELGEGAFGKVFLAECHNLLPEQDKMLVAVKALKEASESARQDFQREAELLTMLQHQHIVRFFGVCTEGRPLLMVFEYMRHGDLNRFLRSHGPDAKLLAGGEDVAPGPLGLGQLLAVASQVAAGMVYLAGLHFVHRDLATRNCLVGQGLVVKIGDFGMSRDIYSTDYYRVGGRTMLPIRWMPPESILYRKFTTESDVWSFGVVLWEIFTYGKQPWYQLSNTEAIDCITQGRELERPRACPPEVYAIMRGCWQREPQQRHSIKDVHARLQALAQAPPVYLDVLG", "assay": "TrkA kinase selectivity assay", "procedure": "TrkA (5-20 mU diluted in 50 mM Tris pH 7.5, 0.1 mM EGTA, 10 mM MnCl, 1 mg/ml BSA) is assayed against a substrate peptide (Poly Glut Tyr) in a final volume of 25.5 μl containing 50 mM Tris pH 7.5, 0.1 mM EGTA, 1 mg/ml substrate peptide, 10 mM magnesium acetate and 0.02 mM [33P-γ-ATP] (50-1000 cpm/pmole) and incubated for 30 min at room temperature. Assays are stopped by addition of 5 μl of 0.5 M (3%) orthophosphoric acid and then harvested onto P81 Unifilter plates with a wash buffer of 50 mM orthophosphoric acid."}}, "data": [{"compound": "c1cc2[nH]nc3c2c(n1)N(C1CCC1)CCC3", "note": "[Example 22, 6-cyclobutyl-6,7,8,9-tetrahydro-2H-1,2,5,6-tetraazabenzo[cd]azulene]", "values": [{"measurement": "percentage inhibition of CAMKKb", "setting": "CAMKKb", "value": 5, "unit": "percentage"}, {"measurement": "percentage inhibition of BRSK2", "setting": "BRSK2", "value": 0, "unit": "percentage"}, {"measurement": "percentage inhibition of MINK1", "setting": "MINK1", "value": 0, "unit": "percentage"}, {"measurement": "percentage inhibition of MEKK1", "setting": "MEKK1", "value": 0, "unit": "percentage"}, {"measurement": "percentage inhibition of TAK1", "setting": "TAK1", "value": 64, "unit": "percentage"}, {"measurement": "percentage inhibition of YES1", "setting": "YES1", "value": 0, "unit": "percentage"}, {"measurement": "percentage inhibition of IGF-1R", "setting": "IGF-1R", "value": 9, "unit": "percentage"}, {"measurement": "percentage inhibition of TrkA", "setting": "TrkA", "value": 0, "unit": "percentage"}]}, {"compound": "c1cc2[nH]nc3c2c(n1)N(C1CCCC1)CCC3", "note": "[Example 23, 6-cyclopentyl-6,7,8,9-tetrahydro-2H-1,2,5,6-tetraazabenzo[cd]azulene]", "values": [{"measurement": "percentage inhibition of CAMKKb", "setting": "CAMKKb", "value": 7, "unit": "percentage"}, {"measurement": "percentage inhibition of BRSK2", "setting": "BRSK2", "value": 0, "unit": "percentage"}, {"measurement": "percentage inhibition of MINK1", "setting": "MINK1", "value": 0, "unit": "percentage"}, {"measurement": "percentage inhibition of MEKK1", "setting": "MEKK1", "value": 0, "unit": "percentage"}, {"measurement": "percentage inhibition of TAK1", "setting": "TAK1", "value": 49, "unit": "percentage"}, {"measurement": "percentage inhibition of YES1", "setting": "YES1", "value": 0, "unit": "percentage"}, {"measurement": "percentage inhibition of IGF-1R", "setting": "IGF-1R", "value": 2, "unit": "percentage"}, {"measurement": "percentage inhibition of TrkA", "setting": "TrkA", "value": 0, "unit": "percentage"}]}, {"compound": "c1cc2[nH]nc3c2c(n1)N(C1CCOCC1)CCC3", "note": "[Example 29, 6-(tetrahydro-2H-pyran-4-yl)-6,7,8,9-tetrahydro-2H-1,2,5,6-tetraazabenzo[cd]azulene]", "values": [{"measurement": "percentage inhibition of CAMKKb", "setting": "CAMKKb", "value": 0, "unit": "percentage"}, {"measurement": "percentage inhibition of BRSK2", "setting": "BRSK2", "value": 2, "unit": "percentage"}, {"measurement": "percentage inhibition of MINK1", "setting": "MINK1", "value": 0, "unit": "percentage"}, {"measurement": "percentage inhibition of MEKK1", "setting": "MEKK1", "value": 0, "unit": "percentage"}, {"measurement": "percentage inhibition of TAK1", "setting": "TAK1", "value": 65, "unit": "percentage"}, {"measurement": "percentage inhibition of YES1", "setting": "YES1", "value": 0, "unit": "percentage"}, {"measurement": "percentage inhibition of IGF-1R", "setting": "IGF-1R", "value": 9, "unit": "percentage"}, {"measurement": "percentage inhibition of TrkA", "setting": "TrkA", "value": 20, "unit": "percentage"}]}, {"compound": "CN1CCC(N2Cc3ccccc3-c3n[nH]c4ccnc2c34)CC1", "note": "[Example 55]", "values": [{"measurement": "percentage inhibition of CAMKKb", "setting": "CAMKKb", "value": 0, "unit": "percentage"}, {"measurement": "percentage inhibition of BRSK2", "setting": "BRSK2", "value": 50, "unit": "percentage"}, {"measurement": "percentage inhibition of MINK1", "setting": "MINK1", "value": 12, "unit": "percentage"}, {"measurement": "percentage inhibition of MEKK1", "setting": "MEKK1", "value": 5, "unit": "percentage"}, {"measurement": "percentage inhibition of TAK1", "setting": "TAK1", "value": 64, "unit": "percentage"}, {"measurement": "percentage inhibition of YES1", "setting": "YES1", "value": 16, "unit": "percentage"}, {"measurement": "percentage inhibition of IGF-1R", "setting": "IGF-1R", "value": 8, "unit": "percentage"}, {"measurement": "percentage inhibition of TrkA", "setting": "TrkA", "value": 5, "unit": "percentage"}]}, {"compound": "CC(C)n1ncc2c1CN(C1CCN(C)CC1)c1nccc3[nH]nc-2c13", "note": "[Example 68]", "values": [{"measurement": "percentage inhibition of CAMKKb", "setting": "CAMKKb", "value": 0, "unit": "percentage"}, {"measurement": "percentage inhibition of BRSK2", "setting": "BRSK2", "value": 31, "unit": "percentage"}, {"measurement": "percentage inhibition of MINK1", "setting": "MINK1", "value": 7, "unit": "percentage"}, {"measurement": "percentage inhibition of MEKK1", "setting": "MEKK1", "value": 0, "unit": "percentage"}, {"measurement": "percentage inhibition of TAK1", "setting": "TAK1", "value": 36, "unit": "percentage"}, {"measurement": "percentage inhibition of YES1", "setting": "YES1", "value": 5, "unit": "percentage"}, {"measurement": "percentage inhibition of IGF-1R", "setting": "IGF-1R", "value": 0, "unit": "percentage"}, {"measurement": "percentage inhibition of TrkA", "setting": "TrkA", "value": 9, "unit": "percentage"}]}]}
